Read-outs that look alike come from different tables or passages of the source.
Assays:
tumor [1] = assay: Antitumor activity of alkylphosphocholines: T/C and median tumor volume after therapy (Example 5); assay type: in vivo; details: for T/C (quotient of the median tumor volume in the treated and the control group × 100): evaluation after therapy for 5 weeks
Source text: Comparison of the Known Antitumor Active Ingredient Erucylphosphocholine with Active Ingredients of the Invention
Comparison of a compound not of the invention (erucylphosphocholine) with two active ingredients of the invention is shown in Table 1.

[2] = oral administration; cited from earlier work
[3] = rats; cited from earlier work
cell culture = details: cited from earlier work
complex organisms = details: in vivo; cited from earlier work
tumor [4] = details: evaluation after therapy for 5 weeks, cited from earlier work

Compound: CCCCCCCC/C=C\CCCCCCCCCCCOP(=O)([O-])OCC[N+](C)(C)C [(Z)-12-Heneicosenyl-1-phosphocholine, (Z)-12-heneicosenyl-1-phosphocholine]
- Median tumor volume, 2 weeks later (tumor [1]; dose 42 μmol/kg): 4.5 cm^3
- Median tumor volume, End of therapy (tumor [1]; dose 42 μmol/kg): 3.4 cm^3
- Median tumor volume, 2 weeks later (tumor [1]; dose 84 μmol/kg): 1.2 cm^3
- Median tumor volume, End of therapy (tumor [1]; dose 84 μmol/kg): 0.3 cm^3
- Median tumor volume, 2 weeks later (tumor [1]; dose 170 μmol/kg): 0.1 cm^3
- Median tumor volume, End of therapy (tumor [1]; dose 170 μmol/kg): 0.1 cm^3
- Median tumor volume, 2 weeks later (tumor [1]; dose 256 μmol/kg): 0.8 cm^3
- Median tumor volume, End of therapy (tumor [1]; dose 256 μmol/kg): 0.2 cm^3

Compound: C=CCCCCCCCC/C=C\CCCCCCCCCCOP(=O)([O-])OCC[N+](C)(C)C [(Z)-11,21-Docosadienyl-1-PC, (Z)-11,21-docosadienyl-1-phosphocholine]
- Median tumor volume, 2 weeks later (tumor [1]; dose 42 μmol/kg): 2.5 cm^3
- Median tumor volume, End of therapy (tumor [1]; dose 42 μmol/kg): 1.5 cm^3
- Median tumor volume, 2 weeks later (tumor [1]; dose 84 μmol/kg): 2.9 cm^3
- Median tumor volume, End of therapy (tumor [1]; dose 84 μmol/kg): 0.9 cm^3
- Median tumor volume, 2 weeks later (tumor [1]; dose 170 μmol/kg): 0.5 cm^3
- Median tumor volume, End of therapy (tumor [1]; dose 170 μmol/kg): 0.4 cm^3
- T/C (quotient of the median tumor volume in the treated and the control group × 100) (tumor [1]; weekly dose 42 μmol/kg): 8%
- T/C (quotient of the median tumor volume in the treated and the control group × 100) (tumor [1]; weekly dose 170 μmol/kg): 2%

Compound: CCCCCCC/C=C\CCCC/C=C\CCCCCOP(=O)([O-])OCC[N+](C)(C)C [(Z,Z)-6,12-Eicosadienyl-1-PC, (Z,Z)-6,12-eicosadienyl-1-phosphocholine]
- Median tumor volume, 2 weeks later (tumor [1]; dose 42 μmol/kg): 13.9 cm^3
- Median tumor volume, End of therapy (tumor [1]; dose 42 μmol/kg): 10 cm^3
- Median tumor volume, 2 weeks later (tumor [1]; dose 84 μmol/kg): 13.9 cm^3
- Median tumor volume, End of therapy (tumor [1]; dose 84 μmol/kg): 3.2 cm^3
- Median tumor volume, 2 weeks later (tumor [1]; dose 170 μmol/kg): 1.9 cm^3
- Median tumor volume, End of therapy (tumor [1]; dose 170 μmol/kg): 0.4 cm^3
- Median tumor volume, 2 weeks later (tumor [1]; dose 256 μmol/kg): 0 cm^3
- Median tumor volume, End of therapy (tumor [1]; dose 256 μmol/kg): 0 cm^3

Compound: CCCCCCCCCCCCCCCCOP(=O)([O-])OCC[N+](C)(C)C [HePC, hexadecylphosphocholine]
- toxicity in clinical studies [2]: toxicities in the gastrointestinal tract
- adverse effect of direct intravenous administration of a solution [3]: thrombophlebitis

Compound: CCCCCCCCCCCCCCCCCCOCC(COP(=O)([O-])OCC[N+](C)(C)C)OC (racemic) [ET18-OCH3, 1-O-octadecyl-2-O-methyl-rac-glycero-3-phosphocholine]
- antineoplastic activity in cell-culture experiments (cell culture): excellent antineoplastic activity
- activity in complex organisms (complex organisms): virtually inactive

Compound: CCCCC/C=C\CCCCCCCCCCCCCCCOP(=O)([O-])OCC[N+](C)(C)C [(Z)-16-Docosenyl-1-phosphocholine, (Z)-16-docosenyl-1-phosphocholine]
- Median tumor volume, End of therapy (tumor [1]; dose 42 μmol/kg): 26.9 cm^3
- Median tumor volume, 2 weeks later (tumor [1]; dose 84 μmol/kg): 7.6 cm^3
- Median tumor volume, End of therapy (tumor [1]; dose 84 μmol/kg): 2.5 cm^3
- Median tumor volume, 2 weeks later (tumor [1]; dose 170 μmol/kg): 0.4 cm^3
- Median tumor volume, End of therapy (tumor [1]; dose 170 μmol/kg): 0.2 cm^3

Compound: CCCCC/C=C\CCCC/C=C\CCCCCCCCCOP(=O)([O-])OCC[N+](C)(C)C [(Z,Z)-10,16-Docosadienyl-1-PC, (Z,Z)-10,16-docosadienyl-1-phosphocholine]
- Median tumor volume, 2 weeks later (tumor [1]; dose 42 μmol/kg): 11.4 cm^3
- Median tumor volume, End of therapy (tumor [1]; dose 42 μmol/kg): 7.5 cm^3
- Median tumor volume, 2 weeks later (tumor [1]; dose 84 μmol/kg): 0.6 cm^3
- Median tumor volume, End of therapy (tumor [1]; dose 84 μmol/kg): 0.6 cm^3
- Median tumor volume, 2 weeks later (tumor [1]; dose 170 μmol/kg): 0.7 cm^3
- Median tumor volume, End of therapy (tumor [1]; dose 170 μmol/kg): 0.5 cm^3

Compound: CCCCCCCC/C=C\CCCCCCCCCCCCOP(=O)([O-])OCC[N+](C)(C)C [Erucylphosphocholine, erucylphosphocholine]
- T/C (quotient of the median tumor volume in the treated and the control group × 100) (tumor [4]; weekly dose 90 μmol/kg): 31%
- T/C (quotient of the median tumor volume in the treated and the control group × 100) (tumor [4]; weekly dose 180 μmol/kg): 6%
- T/C (quotient of the median tumor volume in the treated and the control group × 100) (tumor [4]; weekly dose 360 μmol/kg): <0.1%

Compound: CCCCCCCCCCC/C=C\CCCCCCCCCOP(=O)([O-])OCC[N+](C)(C)C [(Z)-10-Docosenyl-1-PC, (Z)-10-docosenyl-1-phosphocholine]
- Median tumor volume, 2 weeks later (tumor [1]; dose 42 μmol/kg): 4.5 cm^3
- Median tumor volume, End of therapy (tumor [1]; dose 42 μmol/kg): 4.0 cm^3
- Median tumor volume, 2 weeks later (tumor [1]; dose 84 μmol/kg): 3.4 cm^3
- Median tumor volume, End of therapy (tumor [1]; dose 84 μmol/kg): 1.2 cm^3
- Median tumor volume, 2 weeks later (tumor [1]; dose 170 μmol/kg): 0.2 cm^3
- Median tumor volume, End of therapy (tumor [1]; dose 170 μmol/kg): 0.2 cm^3
- Median tumor volume, 2 weeks later (tumor [1]; dose 256 μmol/kg): 0.2 cm^3
- Median tumor volume, End of therapy (tumor [1]; dose 256 μmol/kg): 0.1 cm^3
- T/C (quotient of the median tumor volume in the treated and the control group × 100) (tumor [1]; weekly dose 42 μmol/kg): 9%
- T/C (quotient of the median tumor volume in the treated and the control group × 100) (tumor [1]; weekly dose 170 μmol/kg): 0.5%
- T/C (quotient of the median tumor volume in the treated and the control group × 100) (tumor [1]; weekly dose 256 μmol/kg): 0.2%

From US8129552B2, “Phospholipids with unsaturated alkyl and acyl chains” (Max-Planck-Gesellschaft zur Forderung der Wissenschaften …, priority 1998, dated 2012)
